From patent US20210363254A1, “PHARMACEUTICAL COMBINATIONS” (Novartis AG, priority 2018, published 2021)

Assays:
[1] = test system: immune cells in Colon 26 tumors; assay: Immune profiling of Colon 26 tumors and draining lymph nodes by flow cytometry (7628 and 8063 Colon 26-XPD); type: in vivo, mouse; details: 40 mg/kg every 3h for 3 times on days 0 and 7
Protocol: HDM201 modulated profiles of immune cells in Colon 26 tumors. Increases in % CD11c^+/CD45^+ myeloid cells (A), % CD8^+/CD45^+ T cells (B), PDL1 MFI in CD45^− cells (C), and % PD1^+/CD45^+ lymphocytes (d). Colon 26 cells were implanted into the right flank of Balb/c mice. When tumors reached ˜60 mm^3, mice were randomized and treated with HDM201 at 40 mg/kg every 3h for 3 times on days 0 and 7. Mice were euthanized, and tumors were collected and processed for FACS analysis on Days 5 and 12 post first dose.
HDM201 modulated profiles of immune cells in Colon 26 tumors. Increases in % CD103^+CD11c^+ DCs (A), % Tbet*EOMES-CD8+/CD45^+ T cells (B), and CD8/Treg ratio (C). Colon 26 Cells were implanted into right flank of Balb/c mice. When tumors reached ˜100 mm^3, mice were randomized and treated with HDM201 at 40 mg/kg every 3h for 3 times on days 0 and 7. Mice were euthanized; tumors and draining lymph nodes were collected and processed for FACS analysis on Days 5 and 12 post first dose.
Colon 26 cells were harvested at 80-95% confluence, washed, and re-suspended in cold PBS at a concentration of 2×10^6 cells/ml. Finally, 0.2×10^6 cells in a total volume of 100 μL were implanted subcutaneously (sc) into the upper right flank of naive Balb/c mice.
The tumor infiltrating lymphocytes (TILs) from tumors were analyzed by flow cytometry for both studies ([…] Colon 26-XPD and 8063 Colon 26-XPD). Lymph node lymphocytes were analyzed for 8063 Colon 26-XPD. The samples were plated into two separate 96 well plates, one for T cell staining (Table Ex3.5) and one for myeloid cell staining (Table Ex3.6).
For Study 7628 Colon26-XPD, tumors and spleens were collected from mice on Day 5 and Day 12 post initiation of treatment. Single cell suspensions were generated according to RDS-2016-00163. Briefly, the tissues were minced with scissors followed by mechanical homogenization in dissociation buffer containing RPMI 1640 (Gibco, Life Technologies) with Liberase™ research grade collagenase (Roche) and DNase 1 recombinase (Roche) using the GentleMAX (Miltenyi). Following a 15 minute incubation at 37° C. in a water bath, the homogenates were quenched with 10% FBS and filtered on a […] cell strainer (Falcon). At the end of this process, the single cell suspension of cells was obtained and 2 million cells were plated into 96-well plates for staining with either a T cell or myeloid cell panel of antibodies.
For Study 8063 Colon 26-XPD, tumors and lymph nodes were collected and then processed both mechanically and enzymatically into a single cell suspension according to RDS-2017-00141. The digestion process involves 4-5 consecutive digestion cycles with new digestion buffer containing DNase I (Roche), Collagenase P (Roche), and dispase (Gibco) in each cycle. At the end of this process, cell suspension was filtered on a […] cell strainer to obtain single cell suspension. Two million cells were plated into 96 well plates for staining of T cell panel or myeloid cell panel antibodies.
Following this, the samples were blocked with a 1:50 dilution of mouse Fc block (Miltenyi Biotec) for 30 minutes on ice. The samples were spun for 5 minutes at 1500 rpm and then stained with a fluorochrome-conjugated surface antibody mix as shown in Table Ex3.5 and Ex3.6 for 60 minutes. During the blocking and staining procedures, cells were maintained at 4° C. and protected from light.
For intracellular staining of T cells, after surface staining, the plates were spun again for 5 minutes at 1500 rpm, and then the cells were fixed and permeabilized overnight using a fix/perm kit (eBioscience). The cells were washed with a permeabilization buffer and then stained with the intracellular antibodies for 1 hour at 4° C. in the dark. The plates were washed twice in permeabilization buffer and suspended in 200 μl PBS. Data acquisition was performed using the LSRFortessa™ (BD Biosciences).
Analysis was performed after each run using FLOWJO v10.0.7 software from Treestar. […]

[2] = test system: human SJSA-1 (osteosarcoma) xenograft; assay: TGI PK/PD modelling, human SJSA-1 (osteosarcoma) xenograft rat; type: in vivo; details: human SJSA-1 xenograft rat; for Average concentration for tumor stasis: TGI PK/PD modelling
Protocol: To further support the preferred dose for HDM201, compartmental PK modeling was used to estimate the individual average concentration per cycle for the 9 patients treated at 120 mg on regimen 1B (FIG. 15). For the majority of patients (7 out of 9), the estimated average drug concentrations per cycle were near or above the most conservative average tumor stasis concentration of ˜41 ng/mL per cycle determined from PKPD modeling of preclinical data (human SJSA-1 xenograft rat model).
Compartmental population PK modeling of NVP-HDM201 was used to estimate the individual average plasma concentration for Cycle 1 and to allow comparison with preclinical average concentration for tumor stasis derived by PK/PD tumor growth modeling. […] The dashed line at concentration of ≈19 ng/mL represents average tumor stasis determined from PK/PD modeling of preclinical data from a liposarcoma (HSAX2655) patient-derived xenograft rat model.

In the case of COc1ncc(-c2nc3c(n2C(C)C)[C@H](c2ccc(Cl)cc2)N(c2cc(Cl)cn(C)c2=O)C3=O)c(OC)n1 [HDM201, (S)-5-(5-Chloro-1-methyl-2-oxo-1,2-dihydro-pyridin-3-yl)-6-(4-chloro-phenyl)-2-(2,4-dimethoxy-pyrimidin-5-yl)-1-isopropyl-5,6-dihydro-1H-pyrrolo[3,4-d]imidazol-4-one], the “% CD103+CD11+ DCs” value [1] is reported as “increased”, the “% PD1+CD45+ cells” value [1] is reported as “increased” and the CD8/Treg ratio [1] is reported as “increased”. For the same compound, the “PDL1 expression (MFI) in CD45− cells” value [1] was “induced”, the “newly primed % Tbet+EOMES−CD8+/CD45+ T cells” value [1] was “increased” and the “% CD11C+CD45+ cells in tumors” value ([1]; Days 5 and 12) was “increased”. The “CD8 T cells in tumors” value ([1]; Days 5 and 12) was “increased”, the “Average concentration for tumor stasis” value [2] was about 41 ng/mL and the “Average concentration for tumor stasis” value ([2]; listed as NVP-HDM201) was “≈ 41 ng/mL”. The “average concentration for 95% tumor regression” value [2] was 120 ng/mL and the “average concentration for 95% tumor regression” value ([2]; listed as NVP-HDM201) was 125 ng/mL.
